Source: ChEMBL document CHEMBL1139921, “Synthesis and biological activity of 2-alkylbenzimidazoles bearing a N-phenylpyrrole moiety as novel angiotensin II AT1 receptor antagonists” (Bioorg Med Chem Lett, 2007)
The source made the active and inactive calls. The calls are words filed in the database; no cut-off is given here.

Key:
[1] = target: T1, Type-1 angiotensin II receptor (Bos taurus, UniProt P25104); test: Displacement of [125I]angiotensin-2 from bovine adrenal cortex AT1 receptor; format: tissue-based
T1 sequence (P25104 whole entry): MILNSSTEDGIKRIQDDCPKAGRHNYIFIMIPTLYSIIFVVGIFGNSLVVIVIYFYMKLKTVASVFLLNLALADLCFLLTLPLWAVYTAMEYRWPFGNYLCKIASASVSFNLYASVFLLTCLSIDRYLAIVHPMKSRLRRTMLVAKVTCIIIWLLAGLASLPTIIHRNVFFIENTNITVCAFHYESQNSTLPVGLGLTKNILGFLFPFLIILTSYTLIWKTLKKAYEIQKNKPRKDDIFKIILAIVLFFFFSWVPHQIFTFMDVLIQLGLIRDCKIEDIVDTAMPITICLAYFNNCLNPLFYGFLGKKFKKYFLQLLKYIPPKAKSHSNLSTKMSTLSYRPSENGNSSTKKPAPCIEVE

[2] = target: T2, Type-1 angiotensin II receptor (Oryctolagus cuniculus, UniProt P34976); test: Antagonist activity at AT1 receptor assessed inhibition of angiotensin-2-induced contraction of rabbit thoracic aortic rings; format: functional; settings: read-out: pA2 (converted)
T2 sequence (P34976 whole entry): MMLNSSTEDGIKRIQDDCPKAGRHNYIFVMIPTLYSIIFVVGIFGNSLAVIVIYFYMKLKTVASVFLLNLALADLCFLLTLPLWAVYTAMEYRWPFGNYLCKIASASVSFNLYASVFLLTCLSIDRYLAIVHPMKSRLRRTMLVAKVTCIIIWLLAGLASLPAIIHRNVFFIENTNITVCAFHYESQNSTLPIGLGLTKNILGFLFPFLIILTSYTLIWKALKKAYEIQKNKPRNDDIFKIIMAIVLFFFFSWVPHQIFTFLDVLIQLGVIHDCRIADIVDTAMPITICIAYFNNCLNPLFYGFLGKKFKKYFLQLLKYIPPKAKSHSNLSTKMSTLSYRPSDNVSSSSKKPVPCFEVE

[3] = target: T3, Type-1 angiotensin II receptor (Oryctolagus cuniculus) (UniProt P34976); test: Antagonist activity at AT1 receptor assessed inhibition of norepinephrine-induced contraction of rabbit thoracic aortic rings; format: functional
T3 sequence (whole entry): T2 sequence (P34976 whole entry)

[4] = target: T3, Type-1 angiotensin II receptor (Oryctolagus cuniculus); test: Antagonist activity at AT1 receptor assessed inhibition of KCl-induced contraction of rabbit thoracic aortic rings; format: functional
[5] = target: T3, Type-1 angiotensin II receptor (Oryctolagus cuniculus); test: Antagonist activity at AT1 receptor assessed inhibition of histamine-induced contraction of rabbit thoracic aortic rings; format: functional
Rattus norvegicus [6] = test: Inhibition of angiotensin-2-induced pressor response in normotensive rat at 1 mg/kg, po; format: functional, organism-based; set-up: dose 1 mg/kg
Rattus norvegicus [7] = test: Decrease in mean arterial pressure in po dosed spontaneously hypertensive rat; format: functional, organism-based; settings: Artery
Rattus norvegicus [8] = test: Reduction of mean arterial pressure in spontaneously hypertensive rat at 1 mg/kg, po; format: functional, organism-based; set-up: dose 1 mg/kg; settings: Artery

| SMILES | IC50 [1] [nM] | Kb [2] [nM] | Activity [3] | Activity [4] | Activity [5] | Activity (Rattus norvegicus [6]) | Activity (Rattus norvegicus [7]) | Activity (Rattus norvegicus [8]) |
| --- | --- | --- | --- | --- | --- | --- | --- | --- |
| Cc1nc2cccc(C(=O)O)c2n1Cc1ccc(-n2cccc2C(=O)O)cc1 | 250 | 1260 |  |  |  |  |  |  |
| CCc1nc2cccc(C(=O)OC)c2n1Cc1ccc(-n2cccc2-c2nnn[nH]2)cc1 | 140 | 31.6 |  |  |  |  |  |  |
| CCc1nc2cccc(C(=O)O)c2n1Cc1ccc(-n2cccc2C(=O)O)cc1 | 160 | 316 |  |  |  |  |  |  |
| CCCc1nc2cccc(C(=O)O)c2n1Cc1ccc(-n2cccc2C(=O)O)cc1 | 92 | 100 |  |  |  |  |  |  |
| COC(=O)c1cccc2nc(C)n(Cc3ccc(-n4cccc4-c4nnn[nH]4)cc3)c12 | 200 | 100 |  |  |  |  |  |  |
| CCCc1nc2cccc(C(=O)OCC)c2n1Cc1ccc(-n2cccc2-c2nnn[nH]2)cc1 | 41 | 79.4 |  |  |  |  |  |  |

Stronger by IC50 [1], values ahead:

| IC50 [1] [nM] | Kb [2] [nM] | Activity [3] | Activity [4] | Activity [5] | SMILES | Activity (Rattus norvegicus [6]) | Activity (Rattus norvegicus [7]) | Activity (Rattus norvegicus [8]) |
| --- | --- | --- | --- | --- | --- | --- | --- | --- |
| 33 | 10 |  |  |  | CCCCc1nc2cccc(C(=O)O)c2n1Cc1ccc(-n2cccc2C(=O)O)cc1 |  |  |  |
| 32 | 12.6 |  |  |  | CCCc1nc2cccc(C(=O)OC)c2n1Cc1ccc(-n2cccc2-c2nnn[nH]2)cc1 |  |  |  |
| 19 | 15.8 |  |  |  | CCCCc1nc2cccc(C(=O)OCC)c2n1Cc1ccc(-n2cccc2-c2nnn[nH]2)cc1 |  |  |  |
| 16 | 6.31 |  |  |  | CCCc1nc2cccc(C(=O)O)c2n1Cc1ccc(-n2cccc2-c2nnn[nH]2)cc1 |  |  |  |
| 9.8 | 3.98 | inactive | inactive | inactive | CCCCc1nc2cccc(C(=O)OC)c2n1Cc1ccc(-n2cccc2-c2nnn[nH]2)cc1 | Active | Dose-dependent effect | Active |
| 6.9 | 3.16 | inactive | inactive | inactive | CCCCc1nc2cccc(C(=O)O)c2n1Cc1ccc(-n2cccc2-c2nnn[nH]2)cc1 | Active | Dose-dependent effect | Active |
